From article PMC9268553 (Molecules, 2022)
Several values for one entry are separate records, joined by “and”; a condition that tells them apart may be missing. Equal values may be shown once. Read-outs that look alike come from different tables or passages of the source.

Columns and labels:
[1] = target: T1, bovine thrombin (Bos taurus, UniProt P00735); assay: thrombin inhibition, chromogenic substrate S-2238; format: biochemical
T1 construct: purchased Sigma-Aldrich (Milan, Italy)

[2] = target: T2, human fXa (Homo sapiens, UniProt P00742); assay: biochemical
T2 construct: purchased Chromogenix AB-Instrumentation Laboratories (Milan, Italy)

[3] = target: α-chymotrypsin (Bos taurus, UniProt P00766); assay: α-chymotrypsin inhibition; format: biochemical; conditions: read-out: Ki αCHT
[4] = target: T3, AChE (from electric eel) (Electrophorus electricus, UniProt O42275); assay: biochemical; conditions: for inhibition at 50 µM: read-out: inhibition percentage AchE
T3 construct: AChE (from electric eel); from tissue

[5] = target: T4, BChE (from horse serum) (Equus caballus, UniProt P81908); assay: biochemical; conditions: for inhibition at 50 µM: read-out: inhibition percentage BchE
T4 construct: BChE (from horse serum); from tissue; host or cells: horse serum

[6] = Cheng–Prusoff from IC50, pH 8, mean of three measurements, read-out: Ki fXa
[7] = electric eel AChE, Cheng–Prusoff from IC50, read-out: Ki AchE
[8] = horse serum BChE, Cheng–Prusoff from IC50

T4 sequence (P81908 whole entry): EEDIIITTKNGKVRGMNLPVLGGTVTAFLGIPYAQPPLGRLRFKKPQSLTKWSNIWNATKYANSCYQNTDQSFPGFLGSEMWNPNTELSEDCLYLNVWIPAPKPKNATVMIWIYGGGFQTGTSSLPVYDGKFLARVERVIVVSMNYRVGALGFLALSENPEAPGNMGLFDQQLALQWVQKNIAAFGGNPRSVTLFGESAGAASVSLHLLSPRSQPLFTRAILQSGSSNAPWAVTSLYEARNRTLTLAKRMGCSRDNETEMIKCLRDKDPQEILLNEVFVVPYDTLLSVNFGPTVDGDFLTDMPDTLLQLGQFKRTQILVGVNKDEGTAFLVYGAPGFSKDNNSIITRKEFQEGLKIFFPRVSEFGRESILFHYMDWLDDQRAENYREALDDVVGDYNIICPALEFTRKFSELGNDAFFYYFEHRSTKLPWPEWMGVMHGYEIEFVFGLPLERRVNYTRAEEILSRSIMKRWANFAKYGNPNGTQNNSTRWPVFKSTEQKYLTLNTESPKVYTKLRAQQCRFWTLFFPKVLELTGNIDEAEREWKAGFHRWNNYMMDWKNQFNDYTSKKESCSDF
T2 sequence (P00742 235-488 limits assumed): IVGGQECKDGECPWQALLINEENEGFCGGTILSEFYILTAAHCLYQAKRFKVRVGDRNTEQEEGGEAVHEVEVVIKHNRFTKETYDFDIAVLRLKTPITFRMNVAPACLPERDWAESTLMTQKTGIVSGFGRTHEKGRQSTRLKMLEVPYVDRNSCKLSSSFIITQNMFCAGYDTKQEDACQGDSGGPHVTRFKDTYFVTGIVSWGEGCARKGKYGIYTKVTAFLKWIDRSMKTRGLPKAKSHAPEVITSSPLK
T2 sequence (P00742 41-179 partner limits assumed): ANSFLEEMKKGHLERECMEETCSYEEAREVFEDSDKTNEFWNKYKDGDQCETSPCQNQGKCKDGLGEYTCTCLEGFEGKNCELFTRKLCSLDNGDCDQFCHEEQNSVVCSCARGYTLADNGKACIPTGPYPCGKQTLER
T3 sequence (O42275 24-633): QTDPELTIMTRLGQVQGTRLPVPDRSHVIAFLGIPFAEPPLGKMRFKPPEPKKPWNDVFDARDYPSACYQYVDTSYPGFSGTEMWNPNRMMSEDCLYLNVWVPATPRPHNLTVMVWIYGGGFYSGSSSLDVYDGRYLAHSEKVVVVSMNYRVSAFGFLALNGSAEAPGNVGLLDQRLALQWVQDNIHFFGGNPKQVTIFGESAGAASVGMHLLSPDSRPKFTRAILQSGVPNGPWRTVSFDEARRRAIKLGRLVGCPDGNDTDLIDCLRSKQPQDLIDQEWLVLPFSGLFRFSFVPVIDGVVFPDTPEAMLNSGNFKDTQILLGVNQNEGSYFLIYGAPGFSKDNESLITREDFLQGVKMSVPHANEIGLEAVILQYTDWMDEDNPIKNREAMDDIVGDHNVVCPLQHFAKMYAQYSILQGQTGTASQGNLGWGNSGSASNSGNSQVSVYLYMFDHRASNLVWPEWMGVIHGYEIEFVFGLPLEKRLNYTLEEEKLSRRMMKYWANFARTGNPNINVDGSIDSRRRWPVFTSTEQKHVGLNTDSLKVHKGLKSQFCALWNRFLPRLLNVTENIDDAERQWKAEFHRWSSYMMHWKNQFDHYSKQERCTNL

Row | Structure (SMILES) | Ki [1] [µM] | Ki [2, 6] | Ki [3] [µM] | Ki [4, 7] [µM] | Ki [5, 8] [µM] | further results
1 | N=C(N)c1ccc(NC(=O)CNC(=O)Cc2ccccc2)cc1 [Compound 4a] | 39.4 | > 50 µM |  |  |  | 
2 | N=C(N)c1cccc(NC(=O)CNC(=O)Cc2ccccc2)c1 [Compound 4b] | 24.1 | 25.6 µM |  |  |  | 
3 | N=C(N)c1cccc(NC(=O)CNC(=O)Cc2ccc(-c3ccc(F)cc3F)cc2)c1 [Compound 4c] | 10.7 | 1.01 µM | 35 |  |  | decrease of anti-fXa activity from malonamide 19h to glycinamide 4c ([2]; ratio of Ki, relative to 19h): about 20 times
4 | N=C(N)c1ccc(NC(=O)CC(=O)NCc2ccccc2)cc1 [Compound 18a] | > 50 | 23.2 µM |  |  |  | 
5 | N=C(N)c1cccc(NC(=O)CC(=O)NCc2ccccc2)c1 [Compound 18b] | > 50 | 12.3 µM |  |  |  | 
6 | N=C(N)c1ccc(NC(=O)CC(=O)NCCc2ccccc2)cc1 [Compound 18c] | > 50 | > 50 µM |  |  |  | 
7 | N=C(N)c1ccc(NC(=O)CC(=O)NCCCc2ccccc2)cc1 [Compound 18d] | 25.5 | 39.8 µM |  |  |  | 
8 | N=C(N)c1ccc(NC(=O)CC(=O)NCCCCc2ccccc2)cc1 [Compound 18e] | 5.5 | 18.6 µM |  |  |  | 
9 | Cc1ccc(CNC(=O)CC(=O)Nc2ccc(C(=N)N)cc2)cc1 [Compound 19a] | 36.5 | 4.4 µM |  |  |  | 
10 | Cc1ccc(CNC(=O)CC(=O)Nc2cccc(C(=N)N)c2)cc1 [Compound 19b] | 36.6 | 4.2 µM |  |  |  | 
11 | N=C(N)c1ccc(NC(=O)CC(=O)NCc2ccc(-c3ccccc3)cc2)cc1 [Compound 19c] | > 50 | > 50 µM |  |  |  | 
12 | N=C(N)c1cccc(NC(=O)CC(=O)NCc2ccc(-c3ccccc3)cc2)c1 [Compound 19d] | > 50 | 1.56 µM | 4.3 | 9.33 |  | inhibition at 50 µM [5]: 28%
13 | N=C(N)c1cccc(NC(=O)CC(=O)NCc2ccc(-c3ccccc3F)cc2)c1 [Compound 19e] | 14.6 | 0.93 µM and 0.932 µM | > 50 |  | 7.7 | inhibition at 50 µM [4]: 35%
14 | N=C(N)c1cccc(NC(=O)CC(=O)NCc2ccc(-c3cccc(F)c3)cc2)c1 [Compound 19f] | 18.8 | 0.35 µM and 0.348 µM | 26.5 |  |  | Ki ([4]; read-out: Ki AchE): 8.11 µM; Ki [5]: 8.09 µM
15 | N=C(N)c1cccc(NC(=O)CC(=O)NCc2ccc(-c3ccc(F)cc3)cc2)c1 [Compound 19g] | 6.19 | 0.91 µM and 0.907 µM | > 50 | 4.48 |  | inhibition at 50 µM [5]: 37%
16 | N=C(N)c1cccc(NC(=O)CC(=O)NCc2ccc(-c3ccc(F)cc3F)cc2)c1 [Compound 19h] | 16.1 | 0.057 µM | > 50 | 2.44 | 1.52 | Ki ([2]; read-out: Ki against fXa): 0.057 µM
17 | N=C(N)c1cccc(NC(=O)CC(=O)NCc2ccc(-c3cc(F)cc(F)c3)cc2)c1 [Compound 19i] | 26.7 | 0.264 µM | 30.2 |  | 8.02 | inhibition at 50 µM [4]: 5%
18 | CC(C)(C(=O)NCc1ccc(-c2ccc(F)cc2F)cc1)C(=O)Nc1cccc(C(=N)N)c1 [Compound 19l] | > 50 | 0.214 µM | > 50 |  | 1.55 | Ki [4]: 3.74 µM
19 | N=C(N)c1cccc(NC(=O)CC(=O)Nc2cccc(OCCc3ccc(F)cc3)c2)c1 [Compound 20a] | 12 | 0.413 µM | > 50 | 10 | 1.02 | 
20 | COc1ccc(CCOc2cccc(NC(=O)CC(=O)Nc3cccc(C(=N)N)c3)c2)cc1 [Compound 20b] | 6.66 | 0.205 µM | > 50 | 1.56 | 5.84 | 
21 | N=C(N)c1cccc(NC(=O)CC(=O)N2CCN(c3ccc(F)cc3)CC2)c1 [Compound 21a] | 31.4 | 0.423 µM | > 50 | 4.68 | 10 | 
22 | N=C(N)c1cccc(NC(=O)CC(=O)N2CCC(Oc3ccc(F)cc3)CC2)c1 [Compound 22a] | > 50 | 0.35 µM | > 50 | 1.88 |  | inhibition at 50 µM [5]: 22%
23 | N=C(N)c1cccc(NC(=O)CC(=O)N2CCC(Oc3ccc(F)cc3F)CC2)c1 [Compound 22b] | > 50 | 0.089 µM | > 50 | 2.31 |  | inhibition at 50 µM [5]: 25%
24 | N=C(N)c1cccc(NC(=O)CC(=O)N2CCC(Oc3ccc(F)c(F)c3)CC2)c1 [Compound 22c] | 27 | 0.12 µM | > 50 | 2.68 | 10.9 | 
25 | N=C(N)c1cccc(NC(=O)CC(=O)Nc2ccc(OC3CCNCC3)cc2)c1 [Compound 23a] | 42.4 | 0.59 µM | > 50 |  | 10 | inhibition at 50 µM [4]: 1%
26 | CC(C)N1CCC(Oc2ccc(NC(=O)CC(=O)Nc3cccc(C(=N)N)c3)cc2)CC1 [Compound 23b] | > 50 | 2.3 µM | > 50 | 1.3 | 0.65 | 
